{
  "source": "ChEMBL document CHEMBL5518181",
  "about": "“Studies of antibacterial activity (in vitro and in vivo) and mode of action for des-acyl tridecaptins (DATs)” (Eur J Med Chem, 2024)",
  "key": {"[1]": {"assay": "Toxicity in naive mouse assessed as drug tolerance at 20 mg/kg, sc administered as single dose every 4 hrs for 24 hrs", "assay_type": "organism-based", "details": "in vivo"}, "Escherichia coli [2]": {"system": "Escherichia coli", "assay": "Antibacterial activity against colistin resistant Escherichia coli NCTC 13846 harboring mcr-1 gene assessed as inhibition of bacterial growth incubated for 18 hrs", "assay_type": "functional", "details": "read-out: MIC100"}, "[3]": {"assay": "Aqueous solubility of compound at pH 4.6", "assay_type": "physicochemical"}, "[4]": {"assay": "Lipophilicity, logD of compound at pH 7.4", "assay_type": "physicochemical", "details": "buffer"}, "[5]": {"assay": "Drug uptake in Acinetobacter baumannii ATCC 19606 whole cells assessed as log10 increase in drug accumulation at 10 uM incubated for 10 mins by LC-MS/MS analysis relative to H-(D-Val)-(D-Dab)-Gly-(D-Ser)-(D-Trp)-Ser-Dab-(D-Dab)-Phe-Glu-Val-(D-allo-Ile)-Ala-OH", "assay_type": "ADME"}, "Cell membrane [6]": {"system": "Cell membrane", "assay": "Induction of membrane permeabilization in Escherichia coli ATCC 25922 at 4 to 10 ug/ml measured after 30 mins by Sytox Green labelling based microscopic analysis", "assay_type": "cell membranes", "details": "dose 4-10 µg/ml"}, "[7]": {"assay": "Drug uptake in Proteus mirabilis ATCC 7002 whole cells at 10 uM incubated for 10 mins by LC-MS/MS analysis", "assay_type": "ADME"}, "Proteus mirabilis": {"system": "Proteus mirabilis", "assay": "Antibacterial activity against Proteus mirabilis ATCC 7002 assessed as inhibition of bacterial growth incubated for 18 hrs", "assay_type": "functional", "details": "read-out: MIC100"}, "Staphylococcus aureus": {"system": "Staphylococcus aureus", "assay": "Antibacterial activity against wild type Staphylococcus aureus USA300 assessed as inhibition of bacterial growth incubated for 18 hrs", "assay_type": "functional", "details": "read-out: MIC100"}, "Cell membrane [8]": {"system": "Cell membrane", "assay": "Induction of membrane permeabilization in Klebsiella pneumoniae ATCC 13883 at 4 to 10 ug/ml measured after 30 mins by Sytox Green labelling based microscopic analysis", "assay_type": "cell membranes", "details": "dose 4-10 µg/ml"}, "[9]": {"assay": "Drug localization in membrane fraction of Escherichia coli ATCC 25922 at 10 uM incubated for 10 mins by LC-MS/MS analysis", "assay_type": "ADME, cell membranes"}, "Morganella morganii": {"system": "Morganella morganii", "assay": "Antibacterial activity against Morganella morganii ATCC 25830 assessed as inhibition of bacterial growth incubated for 18 hrs", "assay_type": "functional", "details": "read-out: MIC100"}, "[10]": {"assay": "Drug uptake in Escherichia coli ATCC 25922 assessed as fold increase in cellular drug concentration at 10 uM incubated for 10 mins by LC-MS/MS analysis", "assay_type": "ADME"}, "Klebsiella pneumoniae": {"system": "Klebsiella pneumoniae", "assay": "Antibacterial activity against wild-type Klebsiella pneumoniae ATCC 13883 assessed as inhibition of bacterial growth incubated for 18 hrs", "assay_type": "functional", "details": "read-out: MIC100"}, "Escherichia coli [11]": {"system": "Escherichia coli", "assay": "Antibacterial activity against Escherichia coli ATCC BAA-2469 expressing NDM-1 assessed as inhibition of bacterial growth incubated for 18 hrs", "assay_type": "functional", "details": "read-out: MIC100"}, "Pseudomonas aeruginosa": {"system": "Pseudomonas aeruginosa", "assay": "Antibacterial activity against efflux-deficient Pseudomonas aeruginosa PAO750 assessed as inhibition of bacterial growth incubated for 18 hrs", "assay_type": "functional", "details": "read-out: MIC100"}, "Escherichia coli [12]": {"system": "Escherichia coli", "assay": "Antibacterial activity against Escherichia coli Swiss 9 harboring mcr-1 gene assessed as inhibition of bacterial growth incubated for 18 hrs", "assay_type": "functional", "details": "read-out: MIC100"}, "Escherichia coli [13]": {"system": "Escherichia coli", "assay": "Antibacterial activity against wild-type Escherichia coli ATCC 25922 assessed as inhibition of bacterial growth incubated for 18 hrs", "assay_type": "functional", "details": "read-out: MIC100"}, "Escherichia coli [14]": {"system": "Escherichia coli", "assay": "Antibacterial activity against Escherichia coli Swiss 7 harboring mcr-1 gene assessed as inhibition of bacterial growth incubated for 18 hrs", "assay_type": "functional", "details": "read-out: MIC100"}, "[15]": {"assay": "Drug uptake in Pseudomonas aeruginosa PAO1 whole cells assessed as log10 increase in drug accumulation at 10 uM incubated for 10 mins by LC-MS/MS analysis relative to H-(D-Val)-(D-Dab)-Gly-(D-Ser)-(D-Trp)-Ser-Dab-(D-Dab)-Phe-Glu-Val-(D-allo-Ile)-Ala-OH", "assay_type": "ADME"}, "[16]": {"assay": "Aqueous solubility of compound at pH 7.4", "assay_type": "physicochemical"}},
  "note": "Calls of active or inactive are those of the source. The rule behind the calls is not given here.",
  "data": [
    {"compound": "COLISTIN", "values": [
      {"measurement": "Activity", "setting": "[1]", "value": "Non-Toxic"}
    ]},
    {"compound": "CCCCCCCC(=O)N[C@@H](C(=O)N[C@H](CCN)C(=O)NCC(=O)N[C@H](CO)C(=O)N[C@H](Cc1c[nH]c2ccccc12)C(=O)N[C@@H](CO)C(=O)N[C@@H](CCN)C(=O)N[C@H](CCN)C(=O)N[C@@H](Cc1ccccc1)C(=O)N[C@@H](CCC(=O)O)C(=O)N[C@H](C(=O)N[C@@H](C(=O)N[C@@H](C)C(=O)O)[C@@H](C)CC)C(C)C)C(C)C", "values": [
      {"measurement": "MIC", "setting": "Escherichia coli [2]", "value": 1, "unit": "µg/mL"},
      {"measurement": "solubility", "setting": "[3]", "value": 88, "unit": "mg/mL"},
      {"measurement": "logD", "setting": "[4]", "value": 2.24},
      {"measurement": "log(activity)", "setting": "[5]", "value": 2},
      {"measurement": "Activity", "setting": "Cell membrane [6]", "value": "Active"},
      {"measurement": "Drug uptake", "setting": "[7]", "value": "Active"},
      {"measurement": "MIC", "setting": "Proteus mirabilis", "value": 32, "unit": "µg/mL"},
      {"measurement": "MIC", "setting": "Staphylococcus aureus", "value": 32, "unit": "µg/mL"},
      {"measurement": "Activity", "setting": "Cell membrane [8]", "value": "Active"},
      {"measurement": "Drug uptake", "setting": "[9]", "value": "Active"},
      {"measurement": "MIC", "setting": "Morganella morganii", "value": "> 32", "unit": "µg/mL"},
      {"measurement": "fold change (FC)", "setting": "[10]", "value": 30},
      {"measurement": "MIC", "setting": "Klebsiella pneumoniae", "value": 4, "unit": "µg/mL"},
      {"measurement": "MIC", "setting": "Escherichia coli [11]", "value": 1, "unit": "µg/mL"},
      {"measurement": "MIC", "setting": "Pseudomonas aeruginosa", "value": "> 32", "unit": "µg/mL"},
      {"measurement": "MIC", "setting": "Escherichia coli [12]", "value": 0.5, "unit": "µg/mL"},
      {"measurement": "MIC", "setting": "Escherichia coli [13]", "value": 2, "unit": "µg/mL"},
      {"measurement": "MIC", "setting": "Escherichia coli [14]", "value": 1, "unit": "µg/mL"},
      {"measurement": "log(activity)", "setting": "[15]", "value": 2},
      {"measurement": "solubility", "setting": "[16]", "value": 30, "unit": "mg/mL"}
    ]}
  ]
}
